From patent US7211417B2, “Antibiotic P175-A and semisynthetic derivatives thereof” (priority 2003, dated 2007)
In brackets after ≈: the same amount, converted by molar mass. Where two headings read alike, the source gives them in different places.

Key:
Assay type in all cases: cell-based
[1] = tested on: Escherichia coli; test: MIC by broth dilution, Escherichia coli
Protocol: (§1) The minimal inhibitory concentration (MIC), the lowest concentration of the antibiotic which inhibits growth of the test organism, is determined by the broth dilution method using Muller-Hinton II […] (Baltimore Biological Laboratories) following the recommendations of the National Committee for Clinical Laboratory Standards [Methods for dilution antimicrobial susceptibility tests for bacteria that grow aerobically. Approved standard M7-A2. National Committee for Clinical Laboratory Standards, Villanova, Pa.].
(§2) An inoculum level of 5×10^5 CFU/ml, and a range of antibiotic concentrations (64–0.06 μg/ml) is used. The MIC is determined after the microtiter plates are incubated for 18 hours at 35° C. in an ambient air incubator. The test organisms comprise a spectrum of the Gram-positive bacteria Staphylococcus aureus, Streptococcus pneumoniae, and Enterococcus sp., the Gram-negative bacteria Escherichia coli, and the yeast Candida albicans. These organisms include recent clinical isolates that are resistant to methicillin and vancomycin.

[2] = tested on: Enterococcus faecalis; test: MIC by broth dilution, Enterococcus faecalis
Protocol: as §1, §2

[3] = tested on: Streptococcus pneumoniae GC 1894; test: MIC by broth dilution, Streptococcus pneumoniae GC 1894
Protocol: as §1, §2

[4] = tested on: Staphylococcus aureus; test: MIC by broth dilution, Staphylococcus aureus
Protocol: as §1, §2

[5] = tested on: Escherichia coli (imp); test: MIC by broth dilution, Escherichia coli (imp)
Protocol: as §1, §2

[6] = tested on: Candida albicans; test: MIC by broth dilution, Candida albicans
Protocol: as §1, §2

[7] = tested on: Bacillus subtilis; test: MIC by broth dilution, Bacillus subtilis
[8] = 2 strains, including a vancomycin-resistant strain (VRE), 18 hours at 35° C., read-out: MIC
[9] = Streptococcus pneumoniae, GC1894, Streptococcus pneumoniae GC 1894* (5% LHB), read-out: MIC
[10] = Streptococcus pneumoniae, GC1894, Streptococcus pneumoniae GC 1894+ (THY), read-out: MIC
[11] = 3 strains, including a methicillin-resistant strain (MRSA), 18 hours at 35° C., read-out: MIC

Structure (SMILES)	MIC ([1]; read-out: MIC) [µg/mL]	MIC [2, 8] [µg/mL]	MIC [3, 9] [µg/mL]	MIC [3, 10] [µg/mL]	MIC [4, 11] [µg/mL]	MIC [5] [µg/mL]	MIC ([6]; read-out: MIC) [µg/mL]	MIC ([7]; read-out: MIC) [µg/mL]	MIC [1] [µg/mL]	MIC ([2]; VRE, 18 h) [µg/mL]	MIC ([3]; Streptococcus pneumoniae GC 1894+ (THY)) [µg/mL]	MIC ([3]; Streptococcus pneumoniae, GC1894) [µg/mL]	MIC ([4]; MRSA, 18 h) [µg/mL]	MIC [6] [µg/mL]	MIC [7] [µg/mL]
COc1c2ccc3c(=O)c4cc(C)n(CC(=O)N5CC(C(=O)O)NC(=O)C5C)c(=O)c4c(=O)c3c2c(O)c2c(=O)c3cccc(O)c3c(=O)c12 (centres unmarked) [Example 3, P175-A]	> 64	< 0.06	16 (≈ 23.5 µM)	8 (≈ 11.8 µM)	0.06 to 0.25 (≈ 0.0883 to 0.368 µM)	8 (≈ 11.8 µM)	> 64	0.12 (≈ 0.177 µM)	–	–	–	–	–	–	–
COC(=O)C1CN(C(=O)Cn2c(C)cc3c(=O)c4ccc5c(OC)c6c(=O)c7c(O)cccc7c(=O)c6c(O)c5c4c(=O)c3c2=O)C(C)C(=O)N1 (centres unmarked) [Example 4, P175-A methyl ester]	> 64	< 0.06	1 (≈ 1.44 µM)	2 (≈ 2.88 µM)	0.06 to 0.12 (≈ 0.0865 to 0.173 µM)	4 (≈ 5.77 µM)	> 64	0.12 (≈ 0.173 µM)	–	–	–	–	–	–	–
CCOC(=O)C1CN(C(=O)Cn2c(C)cc3c(=O)c4ccc5c(OC)c6c(=O)c7c(O)cccc7c(=O)c6c(O)c5c4c(=O)c3c2=O)C(C)C(=O)N1 (centres unmarked) [Example 5, P175-A ethyl ester]	> 64	0.25 to 0.5 (≈ 0.353 to 0.707 µM)	0.5 (≈ 0.707 µM)	1 (≈ 1.41 µM)	0.06 to 0.12 (≈ 0.0848 to 0.17 µM)	16 (≈ 22.6 µM)	> 64	0.25 (≈ 0.353 µM)	–	–	–	–	–	–	–
COc1c2ccc3c(=O)c4cc(C)n(CC(=O)N5CC(C(=O)OC(C)C)NC(=O)C5C)c(=O)c4c(=O)c3c2c(O)c2c(=O)c3cccc(O)c3c(=O)c12 (centres unmarked) [Example 6, P175-A isopropyl ester]	> 64	4 (≈ 5.54 µM)	2 (≈ 2.77 µM)	4 (≈ 5.54 µM)	1 to 4 (≈ 1.39 to 5.54 µM)	16 (≈ 22.2 µM)	> 64	8 (≈ 11.1 µM)	–	–	–	–	–	–	–
COc1c2ccc3c(=O)c4cc(C)n(CC(=O)N5CC(C(=O)OCc6ccccc6)NC(=O)C5C)c(=O)c4c(=O)c3c2c(O)c2c(=O)c3cccc(O)c3c(=O)c12 (centres unmarked) [Example 7, P175-A benzyl ester]	> 64	2 to 8 (≈ 2.6 to 10.4 µM)	0.5 (≈ 0.65 µM)	0.25 (≈ 0.325 µM)	0.12 to 2 (≈ 0.156 to 2.6 µM)	32 (≈ 41.6 µM)	> 64	4 (≈ 5.2 µM)	–	–	–	–	–	–	–
COC(=O)COC(=O)C1CN(C(=O)Cn2c(C)cc3c(=O)c4ccc5c(OC)c6c(=O)c7c(O)cccc7c(=O)c6c(O)c5c4c(=O)c3c2=O)C(C)C(=O)N1 (centres unmarked) [Example 8A]	–	–	–	–	–	8 (≈ 10.6 µM)	–	–	> 64	0.5 to 1 (≈ 0.665 to 1.33 µM)	64 (≈ 85.1 µM)	64 (≈ 85.1 µM)	0.5 to 2 (≈ 0.665 to 2.66 µM)	> 64	1 (≈ 1.33 µM)
COc1c2ccc3c(=O)c4cc(C)n(CC(=O)N5CC(C(=O)O)NC(=O)C5C)c(=O)c4c(=O)c3c2c(O)c2c(=O)c3cccc(OCC(=O)O)c3c(=O)c12 (centres unmarked) [Example 9D]	> 64	8 (≈ 10.8 µM)	> 64	64 (≈ 86.8 µM)	8 to 16 (≈ 10.8 to 21.7 µM)	> 64	> 64	8 (≈ 10.8 µM)	–	–	–	–	–	–	–
